Patent US20160113265A1, “[…] AND METHODS THEREOF” (Lanodir USA, Inc., priority 2014, published 2016)
Like-named read-outs stand apart in the source and are kept apart here.

Assays:
[1] = system: live pests; test: Condition of fumigated barge cargo on arrival at destination port (residues, live pests); format: in vivo; conditions: approximately two weeks later
Protocol: A fumigation apparatus, such as the fumigation apparatus 10 (FIGS. 1A-1C), was provided in a barge hatch at a source shipping port that was subsequently loaded with 2,700 metric tons of corn kernels (cargo). A dose of 2,600 g PH3 was injected (approximately […]) without the use of a turbine (e.g., fan). A PH3 sensor was then used to measure the air quality immediately above the surface of the cargo and the gas concentration the approximately 1 meter below the surface of the cargo (using a probe) at predetermined time intervals.
On the same day as Experiment 1, a fumigation apparatus, such as the fumigation apparatus 10 (FIGS. 1A-1C), was provided in a barge hatch at the source shipping port that was subsequently loaded with 2,700 metric tons of corn kernels (cargo). A dose of 2,200 g PH3 was injected (approximately 0.814 g PH3/ton cargo) with a turbine (e.g., fan) to push the PH3. The PH3 sensor was then used to measure the air quality immediately above the surface of the cargo and the gas concentration the approximately 1 meter below the surface of the cargo (using a probe) at predetermined time intervals.
The day following Experiment 1 and Experiment 2, a fumigation apparatus, such as the fumigation apparatus 10 (FIGS. 1A-1C), was provided in a barge hatch at the source shipping port that was subsequently loaded with 2,700 metric tons of corn kernels (cargo). A dose of 1,700 g PH3 was injected (approximately […]) without auxiliary turbine and only with the air flow of the phosphine mixture delivery equipment itself (e.g., approximately 200 m^3/hour). The PH3 sensor was then used to measure the air quality immediately above the surface of the cargo and the gas concentration the approximately 1 meter below the surface of the cargo (using a probe) at predetermined time intervals.
The same day as Experiment 3, and eight days thereafter, nine barges were loaded and fumigated in a similar manner as in Experiment 3 to test repeatability.

[2] = system: Amyelois transitella; conditions: exposed for 24 Hours at 26.7° C. (80° F.), cited from earlier work
[3] = system: Orzaephilus surinamensis; conditions: exposed for 24 Hours at 26.7° C. (80° F.), cited from earlier work
[4] = system: Tribolium castaneum; conditions: exposed for 24 Hours at 26.7° C. (80° F.), cited from earlier work
[5] = system: Tribolium confusum; conditions: exposed for 24 Hours at 26.7° C. (80° F.), cited from earlier work
[6] = system: Lasioderma serricorne; conditions: exposed for 24 Hours at 26.7° C. (80° F.), cited from earlier work
[7] = system: Carpophilus hemipterus; conditions: exposed for 24 Hours at 26.7° C. (80° F.), cited from earlier work
[8] = system: Plodia interpunctella; conditions: exposed for 24 Hours at 26.7° C. (80° F.), cited from earlier work

P [PH3, phosphine gas]
cargo condition on arrival (residues and live pests) ([1]; Experiment 1: 2,600 g PH3 in 2,700 metric tons corn kernels, without turbine): free of residues and live pests
cargo condition on arrival (residues and live pests) ([1]; Experiment 2: 2,200 g PH3 in 2,700 metric tons corn kernels, with a turbine): free of residues and live pests
cargo condition on arrival (residues and live pests) ([1]; Experiment 3: 1,700 g PH3 in 2,700 metric tons corn kernels, without auxiliary turbine): free of residues and live pests
cargo condition on arrival (residues and live pests) ([1]; Experiment 4: nine additional barges fumigated as in Experiment 3): free of residues and live pests
Percent (%) Mortality adults ([2]; 250 ppm PH3): 100%
Percent (%) Mortality eggs ([2]; 250 ppm PH3): 0-78%
Percent (%) Mortality larvae ([2]; 250 ppm PH3): 100%
Percent (%) Mortality pupae ([2]; 250 ppm PH3): 100%
Percent (%) Mortality adults ([2]; 500 ppm PH3): 100%
Percent (%) Mortality eggs ([2]; 500 ppm PH3): 20-80%
Percent (%) Mortality larvae ([2]; 500 ppm PH3): 100%
Percent (%) Mortality pupae ([2]; 500 ppm PH3): 100%
Percent (%) Mortality adults ([2]; 1000 ppm PH3): 100%
Percent (%) Mortality eggs ([2]; 1000 ppm PH3): 70-100%
Percent (%) Mortality larvae ([2]; 1000 ppm PH3): 100%
Percent (%) Mortality pupae ([2]; 1000 ppm PH3): 100%
Percent (%) Mortality adults ([3]; 250 ppm PH3): 100%
Percent (%) Mortality eggs ([3]; 250 ppm PH3): 100%
Percent (%) Mortality larvae ([3]; 250 ppm PH3): 97-100%
Percent (%) Mortality pupae ([3]; 250 ppm PH3): 100%
Percent (%) Mortality adults ([3]; 500 ppm PH3): 100%
Percent (%) Mortality eggs ([3]; 500 ppm PH3): 100%
Percent (%) Mortality larvae ([3]; 500 ppm PH3): 100%
Percent (%) Mortality pupae ([3]; 500 ppm PH3): 100%
Percent (%) Mortality adults ([3]; 1000 ppm PH3): 100%
Percent (%) Mortality eggs ([3]; 1000 ppm PH3): 100%
Percent (%) Mortality larvae ([3]; 1000 ppm PH3): 100%
Percent (%) Mortality pupae ([3]; 1000 ppm PH3): 100%
Percent (%) Mortality adults ([4]; 250 ppm PH3): 100%
Percent (%) Mortality eggs ([4]; 250 ppm PH3): 90-100%
Percent (%) Mortality larvae ([4]; 250 ppm PH3): 100%
Percent (%) Mortality pupae ([4]; 250 ppm PH3): 100%
Percent (%) Mortality adults ([4]; 500 ppm PH3): 100%
Percent (%) Mortality eggs ([4]; 500 ppm PH3): 100%
Percent (%) Mortality larvae ([4]; 500 ppm PH3): 100%
Percent (%) Mortality pupae ([4]; 500 ppm PH3): 100%
Percent (%) Mortality adults ([4]; 1000 ppm PH3): 100%
Percent (%) Mortality eggs ([4]; 1000 ppm PH3): 100%
Percent (%) Mortality larvae ([4]; 1000 ppm PH3): 100%
Percent (%) Mortality pupae ([4]; 1000 ppm PH3): 100%
Percent (%) Mortality adults ([5]; 250 ppm PH3): 100%
Percent (%) Mortality eggs ([5]; 250 ppm PH3): 59-80%
Percent (%) Mortality larvae ([5]; 250 ppm PH3): 100%
Percent (%) Mortality pupae ([5]; 250 ppm PH3): 89-95%
Percent (%) Mortality adults ([5]; 500 ppm PH3): 100%
Percent (%) Mortality eggs ([5]; 500 ppm PH3): 83-100%
Percent (%) Mortality larvae ([5]; 500 ppm PH3): 100%
Percent (%) Mortality pupae ([5]; 500 ppm PH3): 89-98%
Percent (%) Mortality adults ([5]; 1000 ppm PH3): 100%
Percent (%) Mortality eggs ([5]; 1000 ppm PH3): 100%
Percent (%) Mortality larvae ([5]; 1000 ppm PH3): 100%
Percent (%) Mortality pupae ([5]; 1000 ppm PH3): 94-100%
Percent (%) Mortality adults ([6]; 250 ppm PH3): 100%
Percent (%) Mortality eggs ([6]; 250 ppm PH3): 87-94%
Percent (%) Mortality larvae ([6]; 250 ppm PH3): 100%
Percent (%) Mortality pupae ([6]; 250 ppm PH3): 100%
Percent (%) Mortality adults ([6]; 500 ppm PH3): 100%
Percent (%) Mortality eggs ([6]; 500 ppm PH3): 87-96%
Percent (%) Mortality larvae ([6]; 500 ppm PH3): 100%
Percent (%) Mortality pupae ([6]; 500 ppm PH3): 100%
Percent (%) Mortality adults ([6]; 1000 ppm PH3): 100%
Percent (%) Mortality eggs ([6]; 1000 ppm PH3): 96-100%
Percent (%) Mortality larvae ([6]; 1000 ppm PH3): 100%
Percent (%) Mortality pupae ([6]; 1000 ppm PH3): 100%
Percent (%) Mortality adults ([7]; 250 ppm PH3): 100%
Percent (%) Mortality eggs ([7]; 250 ppm PH3): 100%
Percent (%) Mortality larvae ([7]; 250 ppm PH3): 100%
Percent (%) Mortality pupae ([7]; 250 ppm PH3): 100%
Percent (%) Mortality adults ([7]; 500 ppm PH3): 100%
Percent (%) Mortality eggs ([7]; 500 ppm PH3): 100%
Percent (%) Mortality larvae ([7]; 500 ppm PH3): 100%
Percent (%) Mortality pupae ([7]; 500 ppm PH3): 100%
Percent (%) Mortality adults ([7]; 1000 ppm PH3): 100%
Percent (%) Mortality eggs ([7]; 1000 ppm PH3): 100%
Percent (%) Mortality larvae ([7]; 1000 ppm PH3): 100%
Percent (%) Mortality pupae ([7]; 1000 ppm PH3): 100%
Percent (%) Mortality adults ([8]; 250 ppm PH3): 100%
Percent (%) Mortality eggs ([8]; 250 ppm PH3): 89-96%
Percent (%) Mortality larvae ([8]; 250 ppm PH3): 95-100%
Percent (%) Mortality pupae ([8]; 250 ppm PH3): 100%
Percent (%) Mortality adults ([8]; 500 ppm PH3): 100%
Percent (%) Mortality eggs ([8]; 500 ppm PH3): 90-100%
Percent (%) Mortality larvae ([8]; 500 ppm PH3): 97-99%
Percent (%) Mortality pupae ([8]; 500 ppm PH3): 100%
Percent (%) Mortality adults ([8]; 1000 ppm PH3): 100%
Percent (%) Mortality eggs ([8]; 1000 ppm PH3): 95-100%
Percent (%) Mortality larvae ([8]; 1000 ppm PH3): 100%
Percent (%) Mortality pupae ([8]; 1000 ppm PH3): 100%
